Columns and labels:
Settings in all cases: 48 h
[1] = tested on: NOMO1; assay: cell viability relative to DMSO control; higher = less cytotoxic
Method in brief: (§1)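 Viability was expressed as a per-plate percentage of DMSO wells, with cell-free wells as background. Leukemia cells (NOMO1 or SEM at 500 cells/well, P12-Ichikawa at 1000 cells/well) were adapted for at least four passages in each medium and seeded in 1536-well plates (5 μl). Library compounds in DMSO were pin-dosed over an 11-point threefold series from 47 μM to 0.79 nM, and CellTiter-Glo One luminescence was read after 48 h at 37°C.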

[2] = tested on: P12-Ichikawa; assay: as above
Method in brief: as §1

[3] = tested on: SEM cells; assay: as above
Method in brief: as §1

[4] = tested on: NOMO1; assay: AUC of viability dose-response curve (% viability x log10 dose units); higher = less sensitive
Method in brief: (§2)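 Leukemia cells adapted to each medium were seeded at 500 or 1000 cells/well in 1536-well plates and dosed with library compounds in DMSO at 11 threefold doses from 47 μM to 0.79 nM for 48 h at 37°C. CellTiter-Glo One luminescence was normalised per plate to DMSO and cell-free wells, then fitted with a four-parameter log-logistic model over log10 doses. Area under the curve was taken from this fit by the trapezoidal rule, with curves above full viability scaled and curves failing quality control removed.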

[5] = tested on: P12-Ichikawa; assay: as above
Method in brief: as §2

[6] = tested on: SEM cells; assay: as above
Method in brief: as §2

Nc1nc(-c2nn(Cc3ccccc3F)c3ncccc23)nc(N)c1N1CCOCC1
cell viability [%]
Settings | [1] | [2] | [3]
HPLM + 10% dialyzed FBS, 0.000781 µM | 75.2 | 92.3 | 88.9
HPLM + 10% dialyzed FBS, 0.00234 µM | 103 | 100 | 87.4
HPLM + 10% dialyzed FBS, 0.00702 µM | 115 | 105 | 96
HPLM + 10% dialyzed FBS, 0.0211 µM | 102 | 111 | 96.1
HPLM + 10% dialyzed FBS, 0.0632 µM | 119 | 111 | 101
HPLM + 10% dialyzed FBS, 0.19 µM | 122 | 112 | 110
HPLM + 10% dialyzed FBS, 0.569 µM | 122 | 110 | 99.3
HPLM + 10% dialyzed FBS, 1.71 µM | 122 | 109 | 116
HPLM + 10% dialyzed FBS, 5.12 µM | 130 | 109 | 104
HPLM + 10% dialyzed FBS, 15.4 µM | 112 | 107 | 93.5
HPLM + 10% dialyzed FBS, 46.1 µM | 92.1 | 95.9 | 89.8
RPMI 5 mM glucose + 10% FBS, 0.000781 µM | 88.5 | 93.1 | 98
RPMI 5 mM glucose + 10% FBS, 0.00234 µM | 93.8 | 97.9 | 84.6
RPMI 5 mM glucose + 10% FBS, 0.00702 µM | 106 | 98.8 | 103
RPMI 5 mM glucose + 10% FBS, 0.0211 µM | 107 | 116 | 115
RPMI 5 mM glucose + 10% FBS, 0.0632 µM | 110 | 107 | 106
RPMI 5 mM glucose + 10% FBS, 0.19 µM | 115 | 112 | 111
RPMI 5 mM glucose + 10% FBS, 0.569 µM | 113 | 110 | 111
RPMI 5 mM glucose + 10% FBS, 1.71 µM | 120 | 109 | 121
RPMI 5 mM glucose + 10% FBS, 5.12 µM | 104 | 107 | 94.2
RPMI 5 mM glucose + 10% FBS, 15.4 µM | 112 | 111 | 89.6
RPMI 5 mM glucose + 10% FBS, 46.1 µM | 113 | 107 | 80.6
RPMI 5 mM glucose + 10% dialyzed FBS, 0.000781 µM | 96.3 | 86.1 | 93.8
RPMI 5 mM glucose + 10% dialyzed FBS, 0.00234 µM | 107 | 101 | 85.6
RPMI 5 mM glucose + 10% dialyzed FBS, 0.00702 µM | 107 | 100 | 113
RPMI 5 mM glucose + 10% dialyzed FBS, 0.0211 µM | 110 | 108 | 99.9
RPMI 5 mM glucose + 10% dialyzed FBS, 0.0632 µM | 123 | 104 | 104
RPMI 5 mM glucose + 10% dialyzed FBS, 0.19 µM | 106 | 92.1 | 85.2
RPMI 5 mM glucose + 10% dialyzed FBS, 0.569 µM | 111 | 107 | 104
RPMI 5 mM glucose + 10% dialyzed FBS, 1.71 µM | 116 | 101 | 126
RPMI 5 mM glucose + 10% dialyzed FBS, 5.12 µM | 108 | 104 | 101
RPMI 5 mM glucose + 10% dialyzed FBS, 15.4 µM | 121 | 103 | 96.2
RPMI 5 mM glucose + 10% dialyzed FBS, 46.1 µM | 110 | 87.3 | 90.9

AUC of viability dose-response curve
Settings | [4] | [5] | [6]
HPLM + 10% dialyzed FBS | 461 | 469 | 462
RPMI 5 mM glucose + 10% FBS | 458 | 463 | 458
RPMI 5 mM glucose + 10% dialyzed FBS | 467 | 473 | 467

— the supplement of paper PMC11451515
